# Measured values from US20210038668A1, “TRADITIONAL CHINESE MEDICINE COMPOSITION FOR PREVENTING AND/OR TREATING ISCHEMIC REPERFUSION INJURY” (TASLY PHARMACEUTICAL GROUP CO., LTD., priority 2018, published 2021).
# Columns and labels:
# Format in all cases: in vivo, C57BL/6 mice
# [1] = tested on: ATP5D; test: ATP5D content in brain tissue; conditions: brain tissue 24 hours after administration, sham = 1.00; tPA 10 mg/kg alone; T541 20 mg/kg + tPA 10 mg/kg
# Procedure: After reperfused for 24 hours, mice were perfused by normal saline; Western blotting analysis was conducted to the penumbra field of infarcted right cerebral cortex. After perfused, mice brain tissue was taken out; cerebellum and prefrontal lobe were cut off; the brain tissue of right brain close to 1 cm of the central joint of left and right hemispheres along the sagittal view; infarcted penumbra field of the rest tissues was cut off along an 45° angle; the cerebral cortex of the penumbra field was peeled off and preserved at low temperature. Right cerebral cortex was taken and added 1×RIPA lysate and a Cocktail protease inhibitor (1:100, Cell Signaling Technology, US) for full pyrolysis and ultrasonic treatment, and then 17000 g were centrifuged for 30 minutes. Supernatant was taken and added 5×loading buffer by volume, boiled for 20 minutes in boiling water, and then preserved at −80° C. Excessive supernatant was taken out and quantified by a BCA protein quantification liquor (ThermoScientific, US) to measure absorbance value at 560 nm of ELIASA and to calculate the protein concentration according to a standard curve. […] The density of electrophoretic strips was analyzed by an image analysis software Quantityone. […]
# [2] = tested on: mice with carotid artery thrombus; test: Survival rate within 24 hours after administration; conditions: tPA 10 mg/kg alone
# Procedure: Mice were anesthetized via intraperitoneal injection by pentobarbital sodium (2%, 45 mg/kg), and neck kin was sterilized. A median incision was cut on the neck, exposed and isolated to obtain arteria carotis communis; a waterproof cushion was used to isolate arteria carotis communis with the length of about 2.5-3 mm from surrounding tissues. The isolated arteria carotis communis was wrapped by a filter paper soaked by 10% FeCl3 for about 1 mm (width), and the filter paper was removed 3 minutes later, the outside of blood vessel was washed by 0.9% normal saline. The waterproof cushion was removed. The neck incision was sutured. The start of Fe3+ stimulation was defined as the beginning of ischemia, and those mice meeting the following conditions were selected into the group: the blood vessel was blocked at the maximum diameter of the neck thrombus 10 minutes after ischemia; the blood flow of the carotid artery distal end was less than 20% of the base value 15 minutes after ischemia; and the thrombus was stable 4.5 hours after ischemia (before reperfusion); the carotid artery vessel at 60% and more of the diameter was blocked by the maximum diameter of the thrombus.
# Mice were treated by medicaments or normal saline according to random grouping results 4.5 hours after ischemia. Mice femoral vein was intubated, and left femoral vein was injected tPA (tissue plasminogen activator) or normal saline; right femoral vein was injected the traditional Chinese medicinal composition of the present invention or normal saline; 10% of the total dose was injected via an injection pump, and the rest 90% were continuously injected intravenously for 1 hour with the rate of 0.1 ml/h. Three proportion groups were selected to the traditional Chinese medicinal composition of the present invention respectively below:
# The survival rate, neurological scoring, change of carotid artery ischemia size and change of cerebral blood flow perfusion of mice after reperfused for 24 hours were recorded; and the optimal drug concentration was selected for further analysis.
# [3] = tested on: Bcl-2; test: Western blotting of Bcl-2 in brain tissue; conditions: brain tissue 24 h after administration, sham = 1.00; tPA 10 mg/kg alone or + T541 20 mg/kg or ingredients at Table 7 doses
# From the text: To compare the therapeutical effect on reperfusion injury caused by tPA thrombolysis between the traditional Chinese medicinal composition of the present invention and each ingredient (total saponins of Astragalus, the experiment was divided into the following group (tPA is combined with T541, individual ingredient thereof and compatibility of any two ingredients) specifically as follows: tPA+total saponins of Astragalus (tPA+HQ), tPA+ salvianolic acids (tPA+DS), tPA+Panax notoginseng saponins (tPA+SQ), tPA+ total saponins of Astragalus+salvianolic acids (tPA+HQ+DS), tPA+ total saponins of Astragalus+Panax notoginseng saponins (tPA+HQ+SQ), tPA+ salvianolic acids+Panax notoginseng saponins (tPA+DS+SQ) and tPA+T541. Normal saline served as an isovolumetric control. The usage number in each group is 6.
# After reperfused for 24 hours, mice were perfused by normal saline; Western blotting analysis was conducted to the penumbra field of infarcted right cerebral cortex. […] Excessive supernatant was taken out and quantified by a BCA protein quantification liquor (ThermoScientific, US) to measure absorbance value at 560 nm of ELIASA and to calculate the protein concentration according to a standard curve. […] The density of electrophoretic strips was analyzed by an image analysis software Quantityone. […]
# [4] = tested on: brain surface postcapillary venule; test: Plasma albumin leakage of brain surface postcapillary venule; conditions: 24 h after administration; tPA 10 mg/kg alone; T541 20 mg/kg + tPA 10 mg/kg
# Procedure: Plasma albumin leakage: femoral venous cannula of mice was conducted under a stereoscopic microscope (PE/08, outer diameter: 0.36 mm and inner diameter: 0.20 mm). Mice were fixed on an observation board for brain microcirculation in prone position; parietal skin of mice was cut off to expose right parietal bone; the whole parietal bone was thinned by grinding by a hand-held cranial drill till there is only one layer of soft bone cortex under the stereoscopic microscope. FITC-labelled plasma albumin (excitation wavelength: 420-490 nm, emission wavelength: 520 nm) was slowly injected via femoral vein. 10 minutes later, fluorescence images of postcapillary venule, artery in the dominant region of middle cerebral artery and artery in the dominant region of anterior cerebral artery among […] (diameter) on the surface of the mice brain after reperfused for 24 hours by an upright fluorescent microscope linked to hypersensitive fluorescent CCD; then leakage of plasma albumin was analyzed. Fluorescence intensity inside (Iv) and outside (Ii) venule was calculated by an image analysis software ImageJ (Bethesda, Md., USA); the leakage of plasma albumin is denoted by Ii/Iv.
# [5] = T141 12 mg/kg, T582 15 mg/kg each + tPA 10 mg/kg
# [6] = T541 20 mg/kg, T141 12 mg/kg, T582 15 mg/kg each + tPA 10 mg/kg
substance,measurement,setting,value
tPA: tissue-type plasminogen activator (tPA) for thrombolysis,ATP5D,[1],0.71 ± 0.05
same,"survival rate (%), 6 h after administration",[2]; [5],70.00%
same,"survival rate (%), 12 h after administration",[2]; [5],60.00%
same,"survival rate (%), 18 h after administration",[2]; T541 20 mg/kg + tPA 10 mg/kg,50.00%
same,"survival rate (%), 0 h after administration",[2]; [6],100.00%
same,"survival rate (%), 24 h after administration",[2]; [6],50%
same,Bcl-2,[3],1.51 ± 0.14
same,Albumin exudation ratio of venule %,[4],125.10 ± 3.53 %
